Reference: PubChem BioAssay AID2060883 (Molecular Pharmacology Branch, DTP, NCI, 2025)
Values joined by “and” are separate entries in the source; they are usually repeats but may differ in a detail not shown here. Identical values can stand only once.

Tested on: 843782-103-R-J1-PDC complex spheroid viability
Assay: Anticancer human tumor 843782-103-R-J1-PDC patient-derived lung adenocarcinoma cell line growth inhibition [RAS]
Details: for viability, T/C: stronger effect = lower value
How it was run: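 Tumour cells grown as complex spheroids with HUVEC endothelial cells and mesenchymal stem cells, treated with RAS pathway inhibitor combinations. Each agent spans half-log steps from near clinical Cmax, or 10 microM where Cmax is unknown.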

[1] = compound alone, run of 09/09/2024
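Also: viability read after seven days of compound exposure.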

`CCn1c(-c2cccnc2C(C)OC)c2c3cc(ccc31)N1CCOC(CC(NC(=O)C(C(C)C)N(C)C(=O)C3(F)CCN(C(=O)C#CC(C)(C)N(C)C)CC3)C(=O)N3CCCC(N3)C(=O)OCC(C)(C)C2)C1` (configuration not stated) was tested, and the viability, T/C (compound 0.000949 µM) was 82.9% [middle of 8 runs], the viability, T/C (compound 0.003 µM) was 80.1% [middle of 8 runs] and the viability, T/C (compound 0.00949 µM) was 79.1% [middle of 8 runs]. The viability, T/C (compound 0.03 µM) was 75.8% [middle of 8 runs], the viability, T/C (compound 0.0949 µM) was 68.4% [middle of 8 runs] and the viability, T/C (compound 0.3 µM) was 67.3% [middle of 8 runs]. The IC50 (compound alone, run of 08/20/2024) was > 300 nM.

`CC1(O)CCCC1n1c(=O)c(C(F)F)cc2cnc(NC3CCN(S(C)(=O)=O)CC3)nc21` (configuration not stated) was tested, and the viability, T/C (compound 0.0316 µM) was 103% [middle of 4 runs], the viability, T/C (compound 0.316 µM) was 31.9% [middle of 4 runs] and the viability, T/C (compound 1 µM) was 37.1% [middle of 4 runs]. For the same molecule, the viability, T/C (compound 3.16 µM) was 23.7% [middle of 4 runs], the viability, T/C (compound 10 µM) was 3.54% [middle of 4 runs] and the IC50 (curve of compound) was 307 nM [middle of 4 runs].

In the case of `C#Cc1c(F)ccc2cc(O)cc(-c3ncc4c(N5CC6CCC(C5)N6)nc(OCC56CCCN5CC(F)C6)nc4c3F)c12` (configuration not stated), the viability, T/C (compound 0.0316 µM) is reported as 104% [middle of 8 runs], the viability, T/C (compound 0.1 µM) is reported as 106% [middle of 8 runs] and the viability, T/C (compound 0.316 µM) is reported as 106% [middle of 8 runs]. For the same molecule, the viability, T/C (compound 1 µM) was 101% [middle of 8 runs], the viability, T/C (compound 3.16 µM) was 85.1% [middle of 8 runs] and the viability, T/C (compound 10 µM) was 59.7% [middle of 8 runs]. The IC50 [1] was > 10000 nM and 8730 nM.

With `C=CC(=O)Nc1cc(Nc2nccc(-c3cn(C)c4ccccc34)n2)c(OC)cc1N(C)CCN(C)C` + CCn1c(-c2cc(N3CCN(C)CC3)cnc2C(C)OC)c2c3cc(ccc31)-c1csc(n1)CC(NC(=O)C1CC1C)C(=O)N1CCCC(N1)C(=O)OCC(C)(C)C2 the IC50 (curve of first compound, second compound 0.000949 µM) was 296 nM, the IC50 (curve of first compound, second compound 0.003 µM) was 28.9 nM and the IC50 (curve of first compound, second compound 0.00949 µM) was < 3.16 nM. For the same molecule, the IC50 (curve of first compound, second compound 0.03 µM) was < 3.16 nM, the IC50 (curve of first compound, second compound 0.0949 µM) was < 3.16 nM and the IC50 (curve of first compound, second compound 0.3 µM) was < 3.16 nM. It also gave a viability, T/C (second compound 0.000949 µM, first compound 0.00316 µM) of 81.5%, a viability, T/C (second compound 0.000949 µM, first compound 0.01 µM) of 69% and a viability, T/C (second compound 0.000949 µM, first compound 0.0316 µM) of 71.1%. For the same molecule, the viability, T/C (second compound 0.000949 µM, first compound 0.1 µM) was 56.2%, the viability, T/C (second compound 0.000949 µM, first compound 0.316 µM) was 49.4% and the viability, T/C (second compound 0.000949 µM, first compound 1 µM) was 41.3%. It also gave a viability, T/C (second compound 0.003 µM, first compound 0.00316 µM) of 60.1%, a viability, T/C (second compound 0.003 µM, first compound 0.01 µM) of 55.5% and a viability, T/C (second compound 0.003 µM, first compound 0.0316 µM) of 50%. It also gave a viability, T/C (second compound 0.003 µM, first compound 0.1 µM) of 41%, a viability, T/C (second compound 0.003 µM, first compound 0.316 µM) of 33.9% and a viability, T/C (second compound 0.003 µM, first compound 1 µM) of 30.2%. It also gave a viability, T/C (second compound 0.00949 µM, first compound 0.00316 µM) of 34.9%, a viability, T/C (second compound 0.00949 µM, first compound 0.01 µM) of 32.6% and a viability, T/C (second compound 0.00949 µM, first compound 0.0316 µM) of 32.1%. For the same molecule, the viability, T/C (second compound 0.00949 µM, first compound 0.1 µM) was 25.7%, the viability, T/C (second compound 0.00949 µM, first compound 0.316 µM) was 26.9% and the viability, T/C (second compound 0.00949 µM, first compound 1 µM) was 18.3%. For the same molecule, the viability, T/C (second compound 0.03 µM, first compound 0.00316 µM) was 18.6%, the viability, T/C (second compound 0.03 µM, first compound 0.01 µM) was 19.4% and the viability, T/C (second compound 0.03 µM, first compound 0.0316 µM) was 17.6%. The viability, T/C (second compound 0.03 µM, first compound 0.1 µM) was 16.9%, the viability, T/C (second compound 0.03 µM, first compound 0.316 µM) was 17.6% and the viability, T/C (second compound 0.03 µM, first compound 1 µM) was 14.2%. For the same molecule, the viability, T/C (second compound 0.0949 µM, first compound 0.00316 µM) was 17.8%, the viability, T/C (second compound 0.0949 µM, first compound 0.01 µM) was 13.2% and the viability, T/C (second compound 0.0949 µM, first compound 0.0316 µM) was 13.7%. For the same molecule, the viability, T/C (second compound 0.0949 µM, first compound 0.1 µM) was 15.4%, the viability, T/C (second compound 0.0949 µM, first compound 0.316 µM) was 14% and the viability, T/C (second compound 0.0949 µM, first compound 1 µM) was 12.8%. For the same molecule, the viability, T/C (second compound 0.3 µM, first compound 0.00316 µM) was 13.8%, the viability, T/C (second compound 0.3 µM, first compound 0.01 µM) was 13.2% and the viability, T/C (second compound 0.3 µM, first compound 0.0316 µM) was 10.6%. For the same molecule, the viability, T/C (second compound 0.3 µM, first compound 0.1 µM) was 11.8%, the viability, T/C (second compound 0.3 µM, first compound 0.316 µM) was 13.6% and the viability, T/C (second compound 0.3 µM, first compound 1 µM) was 10.4%.

With `NC1c2ccccc2OC12CCN(c1cnc3c(N4CCCc5ncccc54)n[nH]c3n1)CC2` (configuration not stated) the viability, T/C (compound 3.16 µM) was 51.5% [middle of 4 runs] and the viability, T/C (compound 10 µM) was 34.7% [middle of 4 runs].

In the case of `O=C(c1ccc(F)c(F)c1Nc1ccc(I)cc1F)N1CC(O)([C@@H]2CCCCN2)C1` + C#Cc1c(F)ccc2cc(O)cc(-c3ncc4c(N5CC6CCC(C5)N6)nc(OCC56CCCN5CC(F)C6)nc4c3F)c12, the IC50 (curve of first compound, second compound 0.0316 µM) is reported as 287 nM, the IC50 (curve of first compound, second compound 0.1 µM) is reported as 231 nM and the IC50 (curve of first compound, second compound 0.316 µM) is reported as 230 nM. The IC50 (curve of first compound, second compound 1 µM) was 129 nM, the IC50 (curve of first compound, second compound 3.16 µM) was 35.2 nM and the IC50 (curve of first compound, second compound 10 µM) was 6.34 nM. The viability, T/C (second compound 0.0316 µM, first compound 0.00316 µM) was 107%, the viability, T/C (second compound 0.0316 µM, first compound 0.01 µM) was 94.2% and the viability, T/C (second compound 0.0316 µM, first compound 0.0316 µM) was 92.5%. It also gave a viability, T/C (second compound 0.0316 µM, first compound 0.1 µM) of 84.1%, a viability, T/C (second compound 0.0316 µM, first compound 0.316 µM) of 45.9% and a viability, T/C (second compound 0.0316 µM, first compound 1 µM) of 20%. The viability, T/C (second compound 0.1 µM, first compound 0.00316 µM) was 107%, the viability, T/C (second compound 0.1 µM, first compound 0.01 µM) was 104% and the viability, T/C (second compound 0.1 µM, first compound 0.0316 µM) was 89.5%. The viability, T/C (second compound 0.1 µM, first compound 0.1 µM) was 74%, the viability, T/C (second compound 0.1 µM, first compound 0.316 µM) was 39.4% and the viability, T/C (second compound 0.1 µM, first compound 1 µM) was 27.7%. For the same molecule, the viability, T/C (second compound 0.316 µM, first compound 0.00316 µM) was 102%, the viability, T/C (second compound 0.316 µM, first compound 0.01 µM) was 90.7% and the viability, T/C (second compound 0.316 µM, first compound 0.0316 µM) was 89.1%. For the same molecule, the viability, T/C (second compound 0.316 µM, first compound 0.1 µM) was 75.5%, the viability, T/C (second compound 0.316 µM, first compound 0.316 µM) was 39.6% and the viability, T/C (second compound 0.316 µM, first compound 1 µM) was 22.3%. The viability, T/C (second compound 1 µM, first compound 0.00316 µM) was 96%, the viability, T/C (second compound 1 µM, first compound 0.01 µM) was 95.4% and the viability, T/C (second compound 1 µM, first compound 0.0316 µM) was 81.8%. It also gave a viability, T/C (second compound 1 µM, first compound 0.1 µM) of 56.6%, a viability, T/C (second compound 1 µM, first compound 0.316 µM) of 28.9% and a viability, T/C (second compound 1 µM, first compound 1 µM) of 19.7%. The viability, T/C (second compound 3.16 µM, first compound 0.00316 µM) was 81.5%, the viability, T/C (second compound 3.16 µM, first compound 0.01 µM) was 65.7% and the viability, T/C (second compound 3.16 µM, first compound 0.0316 µM) was 53.8%. It also gave a viability, T/C (second compound 3.16 µM, first compound 0.1 µM) of 34.9%, a viability, T/C (second compound 3.16 µM, first compound 0.316 µM) of 26.4% and a viability, T/C (second compound 3.16 µM, first compound 1 µM) of 18.4%. It also gave a viability, T/C (second compound 10 µM, first compound 0.00316 µM) of 56.3%, a viability, T/C (second compound 10 µM, first compound 0.01 µM) of 46.5% and a viability, T/C (second compound 10 µM, first compound 0.0316 µM) of 34.5%. The viability, T/C (second compound 10 µM, first compound 0.1 µM) was 26.9%, the viability, T/C (second compound 10 µM, first compound 0.316 µM) was 19.2% and the viability, T/C (second compound 10 µM, first compound 1 µM) was 14%.

For `C=CC(=O)N1CCN(c2nc(OCC3CCCN3C)nc3c(F)c(-c4nc(N)cc(C)c4C(F)(F)F)c(Cl)cc23)C(C)C1` (configuration not stated), the viability, T/C (compound 0.00316 µM) was 89.6% [middle of 12 runs], the viability, T/C (compound 0.0316 µM) was 86.8% [middle of 12 runs] and the viability, T/C (compound 0.316 µM) was 85.5% [middle of 12 runs]. The viability, T/C (compound 1 µM) was 86% [middle of 12 runs], the IC50 [1] was > 1000 nM and the IC50 (curve of compound) was > 1000 nM.
